ChEMBL document CHEMBL1141987, “Two new irreversible inhibitors of dihydrodipicolinate synthase: diethyl (E,E)-4-oxo-2,5-heptadienedioate and diethyl (E)-4-oxo-2-heptenedioate” (Bioorg Med Chem Lett, 2005)

Assays:
[1] = molecular target: T1, 4-hydroxy-tetrahydrodipicolinate synthase (Escherichia coli K-12) (UniProt P0A6L2); assay: Inhibitory concentration against Escherichia coli dihydrodipicolinate synthase after 15 minutes
T1 sequence (whole entry): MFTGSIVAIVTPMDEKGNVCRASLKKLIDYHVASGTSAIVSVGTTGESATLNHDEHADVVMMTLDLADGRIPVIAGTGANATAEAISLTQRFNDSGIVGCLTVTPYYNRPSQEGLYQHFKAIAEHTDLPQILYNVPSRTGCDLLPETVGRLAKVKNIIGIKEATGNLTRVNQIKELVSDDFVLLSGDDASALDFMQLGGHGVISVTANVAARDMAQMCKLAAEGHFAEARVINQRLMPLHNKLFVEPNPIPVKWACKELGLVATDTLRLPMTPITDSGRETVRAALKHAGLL

[2] = molecular target: T1, 4-hydroxy-tetrahydrodipicolinate synthase (Escherichia coli K-12); assay: Inhibitory concentration against Escherichia coli dihydrodipicolinate synthase after 30 minutes

Concentration [1]: 50 nM
Concentration [2]: 50 nM
Compound: CCOC(=O)/C=C/C(=O)CCC(=O)OCC
